What all share (assay type): in vivo
Assay [1] deals with southern root-knot nematode (Meloidogyne incognita). Put plainly: Meloidogyne incognita test. As to conditions: 20 ppm, after 14 days. The protocol:
Meloidogyne incognita—Test
Solvent: 125.0 parts by weight of acetone
(§1) To produce a suitable preparation of active compound, 1 part by weight of active compound is mixed with the stated amount of solvent, and the concentrate is diluted with water to the desired concentration.
Vessels are filled with sand, a solution of the active ingredient, a suspension containing eggs and larvae of the southern root-knot nematode (Meloidogyne incognita) and salad seeds. The salad seeds germinate and the seedlings grow. Galls develop in the roots.
After 14 days the nematicidal activity is determined based on the percentage of gall formation. 100% means no galls were found and 0% means the number of galls found on the roots of the treated plants was equal to that in untreated control plants.

The subject of assay [2] is adult unfed cat fleas (Ctenocephalides felis). Briefly: Ctenocephalides felis oral test. As to conditions: 48 h, 100 ppm in citrated cattle blood, after 2 days. Here is the method: Ctenocephalides felis—Oral Test
Solvent: dimethyl sulfoxide
To produce a suitable preparation of active compound, 10 mg of active compound are dissolved in 0.5 mL solvent, and the concentrate is diluted with citrated cattle blood to the desired concentration.
Approximately 20 adult unfed cat fleas (Ctenocephalides felis) are placed in a flea chamber whose top and bottom is covered with gauze. A chamber whose bottom is sealed with parafilm, is filled with the blood-compound solution and placed on top of the flea chamber, so that the fleas can suck the blood. The blood chamber is heated to 37° C. whereas the flea chamber is kept at room temperature.
After 2 days mortality in % is determined. 100% means all the fleas have been killed; 0% means none of the fleas have been killed.

Assay [3] deals with adult engorged female ticks (Rhipicephalus microplus). Put plainly: Rhipicephalus (Boophilus) microplus injection test. As to conditions: 168 h, 4 μg/animal, egg deposition after 7 days, read-out: efficacy (infertile eggs). Put shortly:
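Abdominal injection, 1 μL compound/DMSO, n=5 engorged adult females; climate-chamber incubation. Readout d7: fertile egg laying; doubtful eggs held to hatch (~42 d). % efficacy = infertile eggs (100% all infertile).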

The subject of assay [4] is Rhipicephalus (Boophilus) microplus larvae (strain Parkhurst, resistant against synthetic pyrethroids). Put plainly: Rhipicephalus (Boophilus) microplus in-vitro contact test, larval cattle tick. As to conditions: after 48 hours, read-out: efficacy (larvae dead or moribund); for pest or weed control at 1 µg/cm2, 100 g/ha: 1 μg/cm^2 (=100 g/ha); for pest or weed control at 5 µg/cm2, 500 g/ha: 5 μg/cm^2 (=500 g/ha). Put shortly: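 Pyrethroid-resistant larvae (strain Parkhurst), 20–50 per tube, exposed by contact to a dried acetone film of compound (5 μg/cm² at 900 ppm) for 48 h at 27 °C and 85% humidity. Percent dead or moribund larvae scored from negative geotactic behaviour.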

The subject of assay [5] is fall armyworm larvae (Spodoptera frugiperda). Put plainly: Spodoptera frugiperda spray test. As to conditions: 168 h, maize leaf sections, after 7 days. Put shortly: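 Percent larval kill read at day 7, from 0% (no caterpillars dead) to 100% (all dead). Larvae were placed on dried Zea mays leaf discs previously sprayed with test preparations made from an acetone/DMF solution diluted in 1000 ppm emulsifier-containing water.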

In assay [6] the test system is larvae of the banded cucumber beetle (Diabrotica balteata). Briefly: Diabrotica balteata spray test. As to conditions: 168 h, after 7 days, read-out: efficacy (seedling growth); for pest or weed control at 6.4 µg/disc, 20 g/ha: 20 g/ha (=6.4 μg/well); for pest or weed control at 32 µg/disc, 100 g/ha: 100 g/ha (=32 μg/well). Put shortly: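 Efficacy was read 7 days after infesting each unit with 10–20 banded cucumber beetle larvae, as % of seedlings growing like untreated, uninfested controls. Before infestation, wheat seeds germinated 1 day on agar (5 per well) were sprayed with the active ingredient. The active was formulated in acetone/DMF and diluted in water containing emulsifier.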

In assay [7] the test system is brown planthopper (Nilaparvata lugens). Briefly: Nilaparvata lugens spray test. As to conditions: 96 h, 500 g/ha, rice plants, after 4 days. Here is the method:
Nilaparvata lugens—Spray Test
(§2) Solvent: 78.0 parts by weight of acetone • • 1.5 parts by weight of dimethylformamide
(§3) Emulsifier: alkylarylpolyglycol ether
(§4) To produce a suitable preparation of active compound, 1 part by weight of active compound is mixed with the stated amount of solvents and is diluted with water, containing an emulsifier concentration of 1000 ppm, to the desired concentration. Further test concentrations are prepared by dilution with emulsifier containing water.
Rice plants (Oryza sativa) are sprayed with a preparation of the active ingredient of the desired concentration and the plants are infested with the brown planthopper (Nilaparvata lugens).
After 4 days mortality in % is determined. 100% means all planthoppers have been killed and 0% means none of the planthoppers have been killed.

Assay [8] deals with green peach aphid (Myzus persicae). Put plainly: Myzus persicae spray test. As to conditions: foliar, 120 h, Chinese cabbage leaf disks, after 5 days. The protocol: Myzus persicae—Spray Test
Solvent: 78.0 parts by weight acetone • 1.5 parts by weight dimethylformamide
as §3, §4
Chinese cabbage (Brassica pekinensis) leaf disks infected with all instars of the green peach aphid (Myzus persicae), are sprayed with a preparation of the active ingredient of the desired concentration.
(§5) After 5 days mortality in % is determined. 100% means all aphids have been killed and 0% means none of the aphids have been killed.

Assay [9] deals with adult brown dog ticks (Rhipicephalus sanguineus). Put plainly: Rhipicephalus sanguineus in-vitro contact test, adult brown dog ticks. As to conditions: 48 h, 5 μg/cm^2 (=500 g/ha), after 48 hours, read-out: efficacy (ticks dead or moribund). Put shortly: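 Acetone solution coated on glass tube inner walls (900 ppm, giving 5 μg/cm^2); after drying, 5–10 adult ticks added and kept 48 h at room temperature. Efficacy scored as percent dead or moribund, i.e., ticks unable to climb away on a 45–50 °C heating plate within 5 min.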

For assay [10], the system named is adult cat fleas (Ctenocephalides felis). Put plainly: Ctenocephalides felis in-vitro contact test, adult cat flea. As to conditions: after 48 hours, read-out: efficacy (fleas dead or moribund); for pest or weed control at 1 µg/cm2, 100 g/ha: 1 μg/cm^2 (=100 g/ha); for pest or weed control at 5 µg/cm2, 500 g/ha: 5 μg/cm^2 (=500 g/ha). Put shortly:
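Acetone solution coated onto glass tube walls; 900 ppm gives 5 μg/cm². Once dry, 5–10 adult fleas per tube held at room temperature for 48 h. Efficacy (%) is the share of fleas dead or moribund, i.e. unable to climb away on a 45–50° C heating plate.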

Assay [11] deals with adult mosquitoes Anopheles funestus strain FUMOZ-R. Put plainly: Anopheles funestus test (ANPHFU surface treatment & contact assay). As to conditions: 24 hours after contact, read-out: mortality (efficacy); for mortality at 20 mg/m2: surface concentration 20 mg/m^2, 30 minutes exposure. Here is the method:
Anopheles funestus Test (ANPHFU Surface Treatment & Contact Assay)
(§6) Solvent: Aceton+2000 ppm rapeseed oil methyl ester (RME)
In order to produce a sufficient, active ingredient containing solution it is necessary to solve the test compound in the solvent-mix (acetone at 2 mg/ml/RME 2000 ppm). This solution is pipetted onto a glazed tile and after evaporation of the acetone, adult mosquitoes of the species Anopheles funestus strain FUMOZ-R (Hunt et al., Med. Vet. Entomol. 2005 Sep. 19(3): 271-275) are placed onto the dried surface. The exposure time is 30 minutes.
(§7) Mortality in percent (%) is determined 24 hours after contact of the insects to the treated surface. 100% mortality means that all tested insects are dead, whereas 0% means that no insect died.

Assay [12] has as its system adult flies Musca domestica strain WHO-N. Put plainly: Musca domestica test (MUSCDO surface treatment & contact assay). As to conditions: surface concentration 20 mg/m^2, 30 minutes exposure, 24 hours after contact, read-out: mortality (efficacy). The protocol: Musca domestica Test (MUSCDO Surface Treatment & Contact Assay)
as §6
In order to produce a sufficient, active ingredient containing solution it is necessary to solve the test compound in the solvent-mix (acetone at 2 mg/ml/RME 2000 ppm). This solution is pipetted onto a glazed tile and after evaporation of the acetone, adult flies of the species Musca domestica strain WHO-N are placed onto the dried surface. The exposure time is 30 minutes.
as §7

Assay [13] concerns adult mosquitoes Aedes aegypti strain MONHEIM. Put plainly: Aedes aegypti test (AEDSAE surface treatment & contact assay). As to conditions: 24 hours after contact, read-out: mortality (efficacy); for mortality at 20 mg/m2: surface concentration 20 mg/m^2, 30 minutes exposure. The protocol:
Aedes aegypti Test (AEDSAE Surface Treatment & Contact Assay)
as §6
In order to produce a sufficient, active ingredient containing solution it is necessary to solve the test compound in the solvent-mix (acetone at 2 mg/ml/RME 2000 ppm). This solution is pipetted onto a glazed tile and after evaporation of the acetone, adult mosquitoes of the species Aedes aegypti strain MONHEIM are placed onto the dried surface. The exposure time is 30 minutes.
as §7

Assay [14] has as its system green peach aphid (Myzus persicae). Briefly: Myzus persicae oral test. As to conditions: 120 h, 4 ppm, after 5 days. Here is the method: Solvent: 100 parts by weight acetone
as §1
50 μL compound solution is filled in microtiter plates and 150 μL IPL41 insect medium (33%+15% sugar) is added to obtain a total volume of 200 μL per well. Afterwards the plates are sealed with parafilm through which a mixed population of the green peach aphid (Myzus persicae) can suck on the compound preparation.
as §5

The test system of assay [15] is larvae of the southern green stink bug (Nezara viridula). Put plainly: Nezara viridula spray test. As to conditions: 96 h, 100 g/ha, barley plants, after 4 days. The protocol: Nezara viridula—Spray Test
as §2, §3
To produce a suitable preparation of active compound, 1 part by weight of active compound is mixed with the stated amount of solvent, and the concentrate is diluted with water, containing an emulsifier concentration of 1000 ppm, to the desired concentration. Further test concentrations are prepared by dilution with emulsifier containing water.
Barley plants (Hordeum vulgare) infested with larvae of the southern green stink bug (Nezara viridula) are sprayed with a test solution containing the desired concentration of the active ingredient.
After 4 days mortality in % is determined. 100% means all the stink bugs have been killed; 0% means none of the stink bugs have been killed.

The mark [16] stands for this setting: surface concentration 4 mg/m^2, 30 minutes exposure.

Take `CC(NC(=O)c1cc(Br)cc(C#N)c1)c1nccnc1-c1nccs1` (racemic) [Example I-55, (rac)-3-Bromo-5-cyano-N-{1-[3-(1,3-thiazol-2-yl)pyrazin-2-yl]ethyl}benzamide]: the “nematicidal activity (based on gall formation)” value in assay [1] came to 100%. Also, in assay [2], the mortality (usually the percentage killed) at 100 ppm stood at 100%.
Turning to `CC(NC(=O)c1cc(Br)cc(OC(F)(F)F)c1)c1nccnc1-c1ccccn1` (centres unmarked) [Example I-17], the pest or weed control at 0.004 mg in assay [3] came to 100%. Also, in [4], the pest or weed control at 1 µg/cm2, 100 g/ha amounted to 80% and the pest or weed control at 5 µg/cm2, 500 g/ha is 90%. Further, the “nematicidal activity (based on gall formation)” value in assay [1] turned out to be 90%. For the same compound, in assay [5], the mortality at 100 g/ha was determined as 83%. Further, the mortality at 100 ppm in [2] is 100%. In addition, in assay [6], the pest or weed control at 6.4 µg/disc, 20 g/ha turned out to be 100% and the pest or weed control at 32 µg/disc, 100 g/ha came out at 100%.
Turning to `CCN(C)C(=O)c1cnc(-c2nccnc2[C@H](C)NC(=O)c2cc(C(F)(F)F)cc(C(F)(F)F)c2)s1` [Example I-85, 2-(3-{(1S)-1-[3,5-bis(trifluoromethyl)benzamido]ethyl}pyrazin-2-yl)-N-ethyl-N-methyl-1,3-thiazole-5-carboxamide], in assay [7], the mortality at 500 g/ha was determined as 100%. In addition, the pest or weed control at 1 µg/cm2, 100 g/ha in assay [4] and in [10] was 100% each time. Further, the pest or weed control at 5 µg/cm2, 500 g/ha in assay [4], in assay [9] and in assay [10] was 100% throughout. Moreover, the mortality at 100 g/ha is 90% in [8] and 100% in assay [5]. Also, the mortality at 20 mg/m2 in assay [11], in assay [12] and in assay [13] was 80 to 100% in each case. In assay [6], the pest or weed control at 6.4 µg/disc, 20 g/ha came to 100%. Moreover, in assay [6], the pest or weed control at 32 µg/disc, 100 g/ha was determined as 100%.
Take `CC(NC(=O)c1cc(C(F)(F)F)cc(C(F)(F)F)c1)c1nccnc1-c1ccc(C(=O)N2CCOCC2)cn1` (racemic) [Example I-34, (rac)-N-[1-{3-[5-(morpholine-4-carbonyl)pyridin-2-yl]pyrazin-2-yl}ethyl]-3,5-bis(trifluoromethyl)benzamide]: the pest or weed control at 1 µg/cm2, 100 g/ha was 100% in assay [4] and 80% in assay [10]. Besides, the pest or weed control at 5 µg/cm2, 500 g/ha is 100% in assay [4], 80% in assay [9] and 90% in assay [10]. In addition, the mortality at 4 ppm in assay [14] came to 100%. Besides, in [6], the pest or weed control at 32 µg/disc, 100 g/ha was 80%.
With `CC(NC(=O)c1cc(C(F)(F)F)cc(C(F)(F)F)c1)c1nccnc1-c1ccc(Cl)cn1` (centres unmarked) [Example I-20], the pest or weed control at 0.004 mg in assay [3] was 80%. Moreover, in [4], the pest or weed control at 1 µg/cm2, 100 g/ha is 100% and the pest or weed control at 5 µg/cm2, 500 g/ha was found to be 100%. The compound also gave a mortality at 4 ppm in assay [14] of 90%. The same compound registered a mortality at 100 g/ha in [5] of 100%. In [6], the pest or weed control at 6.4 µg/disc, 20 g/ha came to 80% and the pest or weed control at 32 µg/disc, 100 g/ha was determined as 100%.
`CC(NC(=O)c1cncc(C(F)(F)F)c1)c1nccnc1-c1ncccn1` (racemic) [Example I-9, (rac)-N-(1-(3-(Pyrimidin-2-yl)pyrazin-2-yl)ethyl)-5-(trifluoromethyl)nicotinamide]: in assay [3], the pest or weed control at 0.004 mg amounted to 100%. In [4], the pest or weed control at 1 µg/cm2, 100 g/ha was 100%. Also, the results for the pest or weed control at 5 µg/cm2, 500 g/ha in [4] and in assay [9] were 100% and 80%, respectively. Further, the mortality at 4 mg/m2 in [11] (setting [16]) and in [13] (setting [16]) was 80 to 100% each time. Moreover, the mortality at 20 mg/m2 in [11] and in assay [13] was 80 to 100% throughout. The compound further yielded a mortality at 100 ppm in assay [2] of 80%. The compound further displayed a mortality at 100 g/ha in assay [15] of 90%.

(Values after US12583851B2, “Heteroaryl-substituted pyrazine derivatives as pesticides” (Elanco Animal Health GmbH, priority 2019, dated 2026).)
